Literature values as cited in patent publication US20130090296A1, “INJECTABLE FORMULATION OF A MACROCYCLIC LACTONE AND LEVAMISOLE” (priority 2010, published 2013).

Details: previously found

- pH required for stability: less than 4
Compound: c1ccc([C@H]2CN3CCSC3=N2)cc1 [levamisole]
